In the NIST ThermoML archive (doi:10.1016/j.jct.2006.12.012):

Assay: xn = mol fraction of the nth substance listed
Settings: 101 kPa, Liquid

C[S+](C)[O-] [dimethyl sulfoxide] + O
Settings	mass density, 308.15 K [kg/m3]	mass density, 313.15 K [kg/m3]	mass density, 318.15 K [kg/m3]	viscosity, 308.15 K [mPa·s]	viscosity, 313.15 K [mPa·s]	viscosity, 318.15 K [mPa·s]
x1 = 0.0238	–	1003.79	1001.51	–	0.7751	0.6982
x1 = 0.0489	–	1015.03	1012.48	–	0.9371	0.8322
x1 = 0.0796	–	1027.04	1024.2	–	1.165	1.02
x1 = 0.1183	–	1040.22	1036.98	–	1.471	1.269
x1 = 0.1587	–	1051.58	1047.91	–	1.778	1.519
x1 = 0.2036	–	1061.82	1057.83	–	2.075	1.761
x1 = 0.2379	–	1067.99	1063.81	–	2.258	1.911
x1 = 0.2768	–	1073.27	1069.16	–	2.413	2.04
x1 = 0.3074	–	1076.81	1072.4	–	2.496	2.11
x1 = 0.3335	–	1079.21	1074.68	–	2.54	2.149
x1 = 0.3638	–	1081.11	1076.63	–	2.562	2.172
x1 = 0.3906	–	1082.43	1077.78	2.946	2.56	2.175
x1 = 0.4412	1088.48	1084.05	1079.52	2.876	2.508	2.142
x1 = 0.5193	1089.48	1085.1	1080.42	2.671	2.348	2.025
x1 = 0.5677	1089.61	1085.12	1080.33	2.519	2.227	1.934
x1 = 0.6195	1089.61	1085.01	1080.01	2.355	2.097	1.835
x1 = 0.6813	1089.3	1084.66	1079.61	2.183	1.958	1.727
x1 = 0.7595	1088.81	1083.92	1078.92	2.009	1.818	1.616
x1 = 0.8095	1088.4	1083.63	1078.58	1.926	1.749	1.559
x1 = 0.8856	1087.58	1082.75	1077.68	1.818	1.659	1.486
x1 = 0.9407	1086.95	1082.04	1076.93	1.746	1.599	1.438
x1 = 0.9781	1086.54	1081.71	1076.53	1.697	1.558	1.409
x1 = 1	1086.41	1081.59	1076.46	1.669	1.535	1.393
